Laboratory results from patent US11590116B2 (THERAVANCE BIOPHARMA R&D IP, LLC, priority 2019, dated 2023).

Columns and labels:
[1] = test system: TGF-β-stimulated SMAD3 phosphorylation in BEAS-2B cells; test: Cellular ALK5 potency assay, inhibition of TGF-β stimulated pSMAD3 formation in BEAS-2B cells; format: cell-based; details: Homo sapiens; inhibition of TGF-β stimulated pSMAD3 formation, BEAS-2B cells; read-out: BEAS2B pIC50 (converted)
Summary of the method: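 Cells seeded overnight; rinse with supplemented HBSS; compound 1 h at 37 °C; TGF-β 10 ng/mL final, 30 min; lyse; AlphaLISA acceptor and detector beads 2 h apart, read next day. Potency expressed as pIC50.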

[2] = biological target: T1, recombinant human ALK5 (TGF-βR1) protein (Homo sapiens, UniProt P36897); test: Biochemical ALK5 (TGF-βR1) assay to measure pKi (LANCE Ultra ULight kinase assay); details: apparent pKi from pIC50 by Cheng-Prusoff, read-out: ALK5 pKi (converted)
T1 construct: purchased Life Technologies PR9075A
T1 sequence (P36897 34-503): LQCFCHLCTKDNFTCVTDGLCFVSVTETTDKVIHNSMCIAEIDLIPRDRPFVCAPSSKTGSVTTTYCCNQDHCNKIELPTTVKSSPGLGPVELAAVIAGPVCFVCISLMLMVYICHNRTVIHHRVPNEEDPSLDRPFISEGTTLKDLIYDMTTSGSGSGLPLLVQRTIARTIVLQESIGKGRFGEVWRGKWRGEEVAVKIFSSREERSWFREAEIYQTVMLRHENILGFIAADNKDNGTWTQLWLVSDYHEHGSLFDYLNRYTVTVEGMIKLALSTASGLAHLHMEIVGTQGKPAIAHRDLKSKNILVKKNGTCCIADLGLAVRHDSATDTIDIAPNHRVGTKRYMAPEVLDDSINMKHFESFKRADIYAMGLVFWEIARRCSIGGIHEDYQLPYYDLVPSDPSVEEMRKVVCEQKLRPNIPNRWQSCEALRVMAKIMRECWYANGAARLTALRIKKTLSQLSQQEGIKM
Summary of the method: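 Compounds (10 μM to 25 pM) were preincubated 60 min at room temperature with enzyme, then reactions were started with ATP (125 μM stock, 5× final) and run 60 min at 37 °C. EDTA-containing Eu-anti-phospho-Topo IIα (Thr1342) antibody stopped the reaction; TR-FRET read at 665 nm. pIC50 from 4-parameter fit, converted to pKi via Cheng-Prusoff.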

`Cc1cccc(-c2[nH]cnc2-c2ccc3ncc(Nc4nc5n(n4)CCN(C(C)C)C5)cc3c2)n1` [Compound 128, N-(7-isopropyl-6,8-dihydro-5H-[1,2,4]triazolo[1,5-a]pyrazin-2-yl)-6-[5-(6-methyl-2-pyridyl)-1H-imidazol-4-yl]quinolin-3-amine] was tested, and the IC50 [1] was 25.1 to 158 nM and the Ki [2] was 0.0398 to 0.316 nM.

Work on `Cc1cccc(-c2[nH]cnc2-c2ccc3ncc(-c4ncc(C(=O)O[C@H]5CCNC5)cn4)cc3c2)n1` [Compound 1158, [(3S)-pyrrolidin-3-yl] 2-[6-[5-(6-methyl-2-pyridyl)-1H-imidazol-4-yl]-3-quinolyl]pyrimidine-5-carboxylate] yielded an IC50 [1] of 25.1 to 158 nM and a Ki [2] of 0.0398 to 0.316 nM.

Work on `Cc1cccc(-c2[nH]cnc2-c2ccc3ncc(N4CCC(C(=O)O)CC4)cc3c2)n1` [Compound 213, 1-(6-(5-(6-methylpyridin-2-yl)-1H-imidazol-4-yl)quinolin-3-yl)piperidine-4-carboxylic acid] yielded an IC50 [1] of 200 to 1260 nM and a Ki [2] of 0.0398 to 0.316 nM.

With `Cc1cccc(-c2n[nH]cc2-c2ccc3ncc(-c4nc(CO)co4)cc3n2)n1` [Compound 32, [2-[6-[3-(6-methyl-2-pyridyl)-1H-pyrazol-4-yl]-1,5-naphthyridin-3-yl]oxazol-4-yl]methanol] the IC50 [1] was 25.1 to 158 nM and the Ki [2] was less than 0.0316 nM.

`Cc1cccc(-c2n[nH]cc2-c2ccc3ncc(C4CCNCC4)cc3n2)n1` [Compound 470, 2-[3-(6-methyl-2-pyridyl)-1H-pyrazol-4-yl]-7-(4-piperidyl)-1,5-naphthyridine] gave an IC50 [1] of 25.1 to 158 nM and a Ki [2] of 0.398 to 3.16 nM.

`Cc1cccc(-c2[nH]cnc2-c2ccc3ncc(NC(=O)C4CCNC4)cc3c2)n1` (stereo not drawn) [Compound 618, N-[6-[5-(6-methyl-2-pyridyl)-1H-imidazol-4-yl]-3-quinolyl]pyrrolidine-3-carboxamide] showed an IC50 [1] of 200 to 1260 nM and a Ki [2] of 0.0398 to 0.316 nM.

`COc1ncccc1-c1cnc2ccc(-c3c[nH]nc3-c3cccc(C)n3)nc2c1` [Compound 61, 7-(2-methoxy-3-pyridyl)-2-[3-(6-methyl-2-pyridyl)-1H-pyrazol-4-yl]-1,5-naphthyridine] gave an IC50 [1] of 25.1 to 158 nM and a Ki [2] of 0.0398 to 0.316 nM.

Molecule `CNC1CCN(c2cnc3ccc(-c4c[nH]nc4-c4cccc(C(C)C)n4)nc3c2)CC1` [Compound 364, 1-[6-[3-(6-isopropyl-2-pyridyl)-1H-pyrazol-4-yl]-1,5-naphthyridin-3-yl]-N-methyl-piperidin-4-amine] has an IC50 [1] of 25.1 to 158 nM and a Ki [2] of 0.0398 to 0.316 nM.

`Cc1nc(-c2n[nH]cc2-c2ccc3ncc(N4CCC(N)C4)cc3n2)ccc1F` (stereo not drawn) [Compound 334, 1-[6-[3-(5-fluoro-6-methyl-2-pyridyl)-1H-pyrazol-4-yl]-1,5-naphthyridin-3-yl]pyrrolidin-3-amine] gave an IC50 [1] of 25.1 to 158 nM and a Ki [2] of 0.0398 to 0.316 nM.

`Cc1cccc(-c2nn3c(c2-c2ccc4ncc(-c5cn[nH]c5)cc4n2)CNCC3)n1` [Compound 115, 2-(2-(6-Methylpyridin-2-yl)-4,5,6,7-tetrahydropyrazolo[1,5-a]pyrazin-3-yl)-7-(1H-pyrazol-4-yl)-1,5-naphthyridine] was tested, and the IC50 [1] was 25.1 to 158 nM and the Ki [2] was 0.0398 to 0.316 nM.

`Cc1cccc(-c2c(-c3ccc4ncc(N5CCCNCC5)cc4c3)nnn2Cc2ccccc2)n1` [Compound 360, 6-[1-benzyl-5-(6-methyl-2-pyridyl)triazol-4-yl]-3-(1,4-diazepan-1-yl)quinoline] gave an IC50 [1] of 1580 to 10000 nM and a Ki [2] of 0.398 to 3.16 nM.

Molecule `Cc1cccc(-c2n[nH]cc2-c2ccc3ncc(-c4cnn(C5CNC5)c4)cc3n2)n1` [Compound 386, 7-[1-(azetidin-3-yl)pyrazol-4-yl]-2-[3-(6-methyl-2-pyridyl)-1H-pyrazol-4-yl]-1,5-naphthyridine] has an IC50 [1] of 25.1 to 158 nM and a Ki [2] of less than 0.0316 nM.

In the case of `Cc1cccc(-c2n[nH]cc2-c2ccc3ncc(N4CCC(N5CCCC5)CC4)cc3n2)n1` [Compound 335, 2-(3-(6-methylpyridin-2-yl)-1H-pyrazol-4-yl)-7-(4-(pyrrolidin-1-yl)piperidin-1-yl)-1,5-naphthyridine], the IC50 [1] is reported as 25.1 to 158 nM and the Ki [2] is reported as less than 0.0316 nM.

`Cc1nc(-c2n[nH]cc2-c2ccc3ncc(-c4cn[nH]c4)cc3c2)ccc1F` [Compound 449, 6-[3-(5-fluoro-6-methyl-2-pyridyl)-1H-pyrazol-4-yl]-3-(1H-pyrazol-4-yl)quinoline] showed an IC50 [1] of less than 20 nM and a Ki [2] of less than 0.0316 nM.

With `Cc1cccc(-c2[nH]cnc2-c2ccc3ncc(-c4cncc(C(=O)OC5CNC5)c4)cc3c2)n1` [Compound 577, azetidin-3-yl 5-[6-[5-(6-methyl-2-pyridyl)-1H-imidazol-4-yl]-3-quinolyl]pyridine-3-carboxylate] the IC50 [1] was 200 to 1260 nM and the Ki [2] was 0.0398 to 0.316 nM.

`Cc1cccc(-c2[nH]ncc2-c2ccc3ncc(C(=O)OCCC4CCNC4)cc3c2)n1` (stereo not drawn) [Compound 1164, 2-pyrrolidin-3-ylethyl 6-[5-(6-methyl-2-pyridyl)-1H-pyrazol-4-yl]quinoline-3-carboxylate] showed an IC50 [1] of 25.1 to 158 nM and a Ki [2] of 0.0398 to 0.316 nM.

`Cc1cccc(-c2[nH]cnc2-c2ccc3ncc(C(=O)O[C@H]4CC[C@@](C)(N)CC4)cc3c2)n1` [Compound 768, (4-amino-4-methyl-cyclohexyl) 6-[5-(6-methyl-2-pyridyl)-1H-imidazol-4-yl]quinoline-3-carboxylate] was tested, and the IC50 [1] was 25.1 to 158 nM and the Ki [2] was 0.0398 to 0.316 nM.

In the case of `Cc1cccc(-c2n[nH]cc2-c2ccc3ncc(N4CCNC(C(N)=O)C4)cc3n2)n1` (racemic) [Compound 497, rac-(2S)-4-[6-[3-(6-methyl-2-pyridyl)-1H-pyrazol-4-yl]-1,5-naphthyridin-3-yl]piperazine-2-carboxamide], the IC50 [1] is reported as 200 to 1260 nM and the Ki [2] is reported as 0.0398 to 0.316 nM.

With `Cc1cccc(-c2n[nH]cc2-c2ccc3ncc(N4CCCN(C5CCNCC5)CC4)cc3n2)n1` [Compound 638, 2-[3-(6-methyl-2-pyridyl)-1H-pyrazol-4-yl]-7-[4-(4-piperidyl)-1,4-diazepan-1-yl]-1,5-naphthyridine] the IC50 [1] was 1580 to 10000 nM and the Ki [2] was 0.0398 to 0.316 nM.

`Cc1cccc(-c2nnn(Cc3ccccc3)c2-c2ccc3ncc(N4CCC(N(C)C)C4)cc3n2)n1` (racemic) [Compound 331, rac-(3S)-1-[6-[3-benzyl-5-(6-methyl-2-pyridyl)triazol-4-yl]-1,5-naphthyridin-3-yl]-N,N-dimethyl-pyrrolidin-3-amine] showed an IC50 [1] of 200 to 1260 nM and a Ki [2] of 0.0398 to 0.316 nM.

Work on `Cc1cccc(-c2n[nH]cc2-c2ccc3nccc(CO)c3n2)n1` [Compound 801, [6-[3-(6-methyl-2-pyridyl)-1H-pyrazol-4-yl]-1,5-naphthyridin-4-yl]methanol] yielded an IC50 [1] of 200 to 1260 nM and a Ki [2] of 0.398 to 3.16 nM.

In the case of `Cc1nc(-c2n[nH]cc2-c2ccc3ncc(-c4cc5n(n4)CCCN5)cc3n2)ccc1F` [Compound 651, 2-[3-(5-fluoro-6-methyl-2-pyridyl)-1H-pyrazol-4-yl]-7-(4,5,6,7-tetrahydropyrazolo[1,5-a]pyrimidin-2-yl)-1,5-naphthyridine], the IC50 [1] is reported as less than 20 nM and the Ki [2] is reported as less than 0.0316 nM.

Molecule `COCC1CN(c2cnc3ccc(-c4c[nH]nc4-c4cccc(C)n4)nc3c2)CCN1` (racemic) [Compound 298, 2-[3-(6-methyl-2-pyridyl)-1H-pyrazol-4-yl]-7-[rac-(3R)-3-(methoxymethyl)piperazin-1-yl]-1,5-naphthyridine] has an IC50 [1] of 25.1 to 158 nM and a Ki [2] of 0.0398 to 0.316 nM.

In the case of `Cc1cccc(-c2nc3ccccn3c2-c2ccc3ncc(-c4cn[nH]c4)cc3c2)n1` [Compound 592, 6-[2-(6-methyl-2-pyridyl)imidazo[1,2-a]pyridin-3-yl]-3-(1H-pyrazol-4-yl)quinoline], the IC50 [1] is reported as less than 20 nM and the Ki [2] is reported as less than 0.0316 nM.
